Assay results reported in PubChem BioAssay AID179 (DTP/NCI, 2004).
Activity calls are given as the source filed them.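 How the source made its calls: active means compounds giving half or more protection of infected cells from virus-caused growth loss, again on retest; inactive means the rest.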

Test system: CEM cells HIV-1 protection, formazan growth assay
Assay: NCI AIDS Antiviral Assay
Settings: for IC50: measured here: growth of uninfected CEM cells
Procedure, shortened: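 Steps: treat uninfected and HIV-1-infected human CEM cells at five drug levels; quantify growth by soluble formazan; retest any compound reaching 50% protection; classify actives from the retest.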

SMILES | EC50 [µM] | IC50 [µM] | outcome
COc1cc(OC)cc(N(C)Cc2cnc3nc(N)nc(N)c3c2C)c1 | > 200 | 0.138 | 
COC(=O)C(=O)CC(=O)CCn1ncc(Cl)c(Cl)c1=O | > 776 | 4.07 | 
CC(=O)Nc1ccc(S(=O)(=O)N/N=C/CN2C(=O)c3ccccc3C2=O)cc1 | 26.9 | 89.1 | 
CCCCCCCCCCCC(=O)OCC1OC(OC)C(NC(=O)N(CCCl)N=O)C(O)C1O (centres undefined) | > 26.3 | 22.4 | 
CCOC(=O)C1=C(C)NC(c2ccco2)=C(C#N)C1c1cccc([N+](=O)[O-])c1 (centres undefined) | > 0.2 | 0.0832 | 
NC(N)=NS(=O)(=O)c1ccc(NC(=O)c2cccn3c(=O)c4ccccc4nc23)cc1 |  |  | inactive
COCOC1/C=C/CCCCC2=C(C)C=C(C1)O2 (centres undefined) | > 141 | 132 | 
CN(C)CCN=C1Nc2ccccc2C(=S)N2CSCC12 (centres undefined) | > 200 | > 200 | 
Cc1ccc2c3c(c(C)nc2c1)C(=O)c1ccccc1-3 | > 10.5 | > 10.5 | 
Cc1ccc2nc(NC(=O)C(=O)C3C(=O)NC(=S)NC3=O)sc2c1 | > 692 | 417 | 
COc1ccc(-n2c(C)nc3ccc(NC(=S)Nc4ccccc4)cc3c2=O)cc1 | > 200 | > 200 | 
COc1cc(/C=C/C(=N\NC(N)=S)c2sc(NNC(C)=O)nc2C)ccc1O | > 77.6 | 69.2 | 
CN1C[C@@H]2CC(=O)CC[C@@H]2C[C@H]1C#N | > 676 | 339 | 
[N-]=[N+]=Nc1ccc(CCN2CCN(c3cccc(C(F)(F)F)c3)CC2)cc1I |  |  | inactive
Cc1ccc(N=NC(=O)NNc2ccc(C)c([N+](=O)[O-])c2)cc1[N+](=O)[O-] | > 200 | 63.1 | 
Cn1c(=O)c(C#N)c2n(c1=S)CCCCCCC2 | > 200 | 112 | 
NC(=S)C(=S)N/C=C/c1nc2ccccc2[nH]c1=O | > 200 | 7.94 | 
COC(=O)C1=C(C(=O)OC)P2(C)(C)OC(c3ccccc3)CN2C1(c1ccccc1)c1ccccc1 (centres undefined) | > 36.3 | 4.79 | 
COC(=O)C1=C(O)C(C(=O)OC)[C@@]2(O)[C@@H](C(=O)OC)CC[C@@H]1[C@@H]2C(=O)OC (some centres undefined) | > 200 | 38.9 | 
CC1CCCC(C(=O)CC2CC(=O)NC(=O)C2)C1=O (centres undefined) | > 200 | > 200 | 
O=C1Cc2c([nH]c3c(Cl)cccc23)-c2ccccc2N1 | > 200 | 11.5 | 
CC[C@H](CCCC[C@H]1CC[C@@H]2CC(=O)C[C@H]12)OC | > 200 | 117 | 

SMILES | EC50 [µM] | IC50 [µM] | outcome
C=Cc1c2[n-]c(c1C)/C=c1\[n-]/c(c(C)c1C=C)=C\c1[n-]c(c(CCC(=O)O)c1C)/C=c1\[n-]/c(c(C)c1CCC(=O)O)=C\2.[Fe+4] | > 14.5 | > 14.5 | 
COC(=O)Cc1c(-c2c(CC(=O)OC)c3ccccc3n2C2OC(COC(C)=O)C(OC(C)=O)C(OC(C)=O)C2OC(C)=O)[nH]c2ccccc12 (centres undefined) | > 200 | 26.3 | 
CC1(C(=O)NCCN(CCNC(=O)C2(C)CC3(C)CC(C)(C2)C(=O)NC3=O)CCNC(=O)C2(C)CC3(C)CC(C)(C2)C(=O)NC3=O)CC2(C)CC(C)(C1)C(=O)NC2=O (centres undefined) |  |  | inactive
O=C1CN2C=CC=CC2=NN1 | > 603 | 407 | 
O=c1[nH]nc(Cc2ccccc2)n1/N=C/c1ccccc1Cl | > 200 | > 200 | 
COC(=O)[C@@H]1CN(C(=O)c2ccccc2)C(=O)N1 | > 200 | > 200 | 
CC(=O)N(C(C)=O)n1c(Cc2ccc(Cl)cc2)nn(C(C)=O)c1=O | > 200 | > 200 | 
Clc1nssc1=Nc1nonc1-c1ccccc1 | > 200 | 5.5 | 
CCOC(=O)C[N+]1(C)C2CCC1CC(O)C2 (centres undefined) | > 200 | > 200 | 
COC(=O)NC1=Nc2ccccc2C(=O)NN1 | > 200 | > 200 | 
COc1ccc2nc3nc(-c4ccccc4)c(-c4ccccc4)nc3nc2c1 | 0.0813 | 3.98 | 
CC1(C)OC(=S)N(c2ccccc2)C12C=Cc1cc3ccccc3cc1O2 (centres undefined) | > 200 | 79.4 | 
CN(C)CCNC(=O)c1cccc2c(Nc3ccc(S(N)(=O)=O)cc3)c3ccccc3nc12 |  |  | inactive
O=C(O)CC(O)(CC(=O)O)C(=O)O |  |  | inactive
CC1OC(n2cc(F)c(=O)[nH]c2=O)CCC1O (centres undefined) | > 1020 | > 200 | 
N#Cc1c(NC(=O)CN2CCOCC2)c(C(=O)Nc2ccccc2)n2c1CCC2 | > 200 | > 200 | 
Cn1c(=O)ccc2ccc(N(CCO)CCO)nc21 | > 200 | > 200 | 
CSc1ccc(Nc2cc(=O)[nH]c(=O)[nH]2)cc1 | > 200 | > 200 | 
O=C(CCCN1CC=C(n2c(=O)[nH]c3ccccc32)CC1)c1cccs1 | > 200 | 120 | 
O=C1NC(N2CCCCC2)=N/C1=C\c1ccco1 | > 200 | > 200 | 
CCCN=C1NC(C)=CSC(Nc2ccccc2)=C1C#N | > 200 | > 200 | 
O=C(Cc1ccccc1)OCCOCCOCCOCCOCCOCCOCCOCCOCCOC(=O)Cc1ccccc1 |  |  | inactive

SMILES | EC50 [µM] | IC50 [µM] | outcome
NC(CNC(=O)CBr)C(=O)O (centres undefined) | > 813 | 155 | 
CC(=O)/C=C/c1ccc(C)cc1 | > 63.1 | > 63.1 | 
O=C1CC(CC(O)C(O)C(O)CO)CC(=O)N1 (centres undefined) | > 200 | > 200 | 
CCOC(=O)C(C(=O)OCC)C(=S)NC1OC(COC(C)=O)C(OC(C)=O)C(OC(C)=O)C1OC(C)=O (centres undefined) | > 200 | > 200 | 
CC1(C)C2CCC1(C)C(O)(c1ccccc1)C2=O (centres undefined) | > 91.2 | > 91.2 | 
Cc1ccc(Nc2cn(COCc3ccccc3)c(=O)[nH]c2=O)cc1 | > 200 | > 200 | 
O=C1Nc2cc([N+](=O)[O-])ccc2C(=O)N2CCC[C@@H]12 | > 200 | > 200 | 
O=C(Nc1nc2ccccc2n1Cc1ccccc1)NC12CC3CC(CC(C3)C1)C2 | > 200 | > 200 | 
OCC1OC(NC(=S)NCSCCC(F)(F)C(F)(F)C(F)(F)C(F)(F)C(F)(F)C(F)(F)F)C(O)C(O)C1O (centres undefined) | > 200 | 7.24 | 
O=S1(=O)C(c2ccccc2)C(N2CCCCC2)C1C1CC2c3ccccc3C1c1ccccc12 (centres undefined) | > 200 | 8.32 | 
CN(C)CCN1C(=O)c2cccc3cc([N+](=O)[O-])cc(c23)C1=O | > 200 | 0.0912 | 
O=C(OCc1ccccc1)[C@H]1O[C@@H]1C(=O)OCc1ccccc1 | > 200 | 25.7 | 
CC(C)CC(=O)NC(Nc1ccc(S(=O)(=O)Nc2ncccn2)cc1)(C(F)(F)F)C(F)(F)F | > 200 | > 200 | 
COC(=O)c1c(O)c2c(c3c1OC(C)(C)CC3)OC(C)(C)CC2 | > 200 | 93.3 | 
O=C1OC(=O)C2C3CC(C12)C1C3N1S(=O)(=O)c1ccccc1 (centres undefined) | > 132 | > 132 | 
O=c1c2cccnc2[nH]c2ccc3[nH]ncc3c12 | > 200 | 50.1 | 
CN(C)C(=S)N/N=C\C=N/NC(=S)N(C)C | > 0.2 | 0.117 | 
O=[N+]([O-])c1ccc(C2CC(c3ccccc3)=Nc3ccccc3S2)cc1 (centres undefined) | > 35.5 | 5.75 | 
C1CN(c2nnc(N3CCC3)nn2)C1 |  |  | inactive
CC[C@@H]1CC2CN3CCc4c([nH]c5cc(OC)ccc45)C(C(=O)OC)(C2)C13 (some centres undefined) |  |  | inactive
Cc1c(N=Nc2cc(N=Nc3ccc(N=Nc4ccc(O)c(C(=O)O)c4)cc3)c(N)cc2N)cccc1S(=O)(=O)O | 25.7 | > 100 | 
N#CC12CC=C(c3ccccc3)N=C1NC(c1ccccc1)=CC2 (centres undefined) | > 200 | 23.4 | 

SMILES | EC50 [µM] | IC50 [µM] | outcome
COc1ccc(C(=O)Sc2c(-c3ccccc3)c(=O)n(-c3ccccc3)c(=S)n2-c2ccccc2)cc1 | > 200 | 3.31 | 
CCCCC1C(=O)N2C=C(c3ccccc3)c3ccccc3N2C1=O (centres undefined) | > 100 | 60.3 | 
Nc1ccc(S(=O)(=O)NNc2nc(N3CCCCC3)nc(N3CCCCC3)n2)cc1 | > 200 | > 200 | 
O=[N+]([O-])c1cccc2nc3ccccc3c(NCCCCNc3c4ccccc4nc4cccc([N+](=O)[O-])c34)c12 | > 0.1 | 0.0162 | 
COc1cc(-c2cc(O)c(-c3ccc4ccccc4n3)c(=O)[nH]2)cc(OC)c1OC | > 0.933 | > 0.933 | 
Cc1cc(CSc2ssc(=S)c2-c2ccccc2)c(CSc2ssc(=S)c2-c2ccccc2)cc1C | > 200 | > 200 | 
C=CCc1cc(/C(CC)=C(/CC)c2ccc(OCCN(CC)CC)c(CC=C)c2)ccc1OCCN(CC)CC | > 200 | 8.32 | 
CCOC(=O)/C(=C/c1ccc(C(F)(F)F)cc1)N(CC)CC | > 158 | 64.6 | 
Cc1ccc(NC(=O)/C(=N\Nc2ccc([N+](=O)[O-])cc2[N+](=O)[O-])C2C(=O)NC(=O)NC2=O)cc1 |  |  | inactive
CC(C)OC(=S)Nc1ccc(Cl)c(/C=N/OC(C)(C)C)c1 | > 24 | 23.4 | 
CC1=C2N3C[C@@H](n4c(=O)n(C)c(=O)n43)C23CCC1n1c(=O)n(C)c(=O)n13 | > 72.4 | > 72.4 | 
CCOC(=O)/C=C/c1ccccc1Br | > 38.9 | > 38.9 | 
COc1ccc(N=c2ssc(SC)c2-c2ccccc2)cc1 | > 200 | 46.8 | 
C#CCOC(=O)c1ccc(OC(C)=O)cc1 | > 200 | 191 | 
Cc1ccc(N=Nc2c(O)c3ccccc3[nH]c2=O)c(S(=O)(=O)N(C)C)c1 | > 200 | > 200 | 
CCCC(O)S(=O)(=O)O (centres undefined) | > 200 | > 200 | 
CC(=O)O[C@H]1CC[C@H]2[C@@H]3CCC(C(C)=O)[C@H](C(=O)O)[C@H]3CC[C@]12C (some centres undefined) | > 200 | > 200 | 
N#CC(Cc1ccccc1)C(N)=O (centres undefined) | > 200 | > 200 | 
CC(=O)OC1=C2CC[C@@H]3C(CC[C@@]4(C)C3CC[C@@H]4OC(C)=O)[C@@]2(C)CC(C#N)C1=O (some centres undefined) |  |  | inactive
CCOc1ccc(NC(=S)NC=C(C#N)C#N)cc1 | > 200 | > 200 | 
Clc1cnc2cccc3c2c1C=CN3 | > 129 | 52.5 | 
